Reference: patent publication US5130450A, “Platinum complexes” (Nippon Kayaku Kabushiki Kaisha, priority 1990, dated 1992)
Each block holds one compound with its values, some of them ahead of it.

Key:
SW-1116 cells = experiment: Growth inhibition of SW-1116 cells derived from colon cancer, 96 h, methylene blue staining; format: cell-based
Protocol: (§1) After 24-hour incubation under the conditions of 37° C. and 5% CO2, 10 μl of the novel fat-soluble platinum complex was added in various concentrations and the PC-3 cells and SW-1116 cells were further cultured for 72 hours and 96 hours, respectively. Thereafter, the culture was drawn off from each well by using an aspirator, fixed with MeOH, then added with a 0.05% methylene blue/10 mM tris-(hydroxymethyl)aminomethanehydrochloric acid buffer solution (pH 8.5) at a rate of 100 μl/well and stained at room temperature for 30 minutes. Thereafter, each well was cleared of the staining solution by using an aspirator and washed three times with pure water. Then 3% hydrochloric acid solution was added at a rate of 200 μl/well, and after sealing, the culture was left at room temperature for about 24 hours and the pigment was extracted from the cells. The absorbance (A660) of each well at 660 nm was measured by a dynamic microplate reader, and the growth inhibition rate (%) at each concentration was calculated from the following equation. […] [formula]

PC-3 cells = experiment: Growth inhibition of PC-3 cells derived from lung cancer, 72 h, methylene blue staining; format: cell-based
Protocol: as §1

[1] = in words, clinical use; cited from earlier work
[2] = in words, prior art; cited from earlier work

Compound: CC(C)(O)C(=O)[O-].CC(C)(O)C(=O)[O-].N[C@@H]1CCCC[C@H]1N.[Pt+2] (relative stereo) [compound No. 8, cis-Bis(2-hydroxy-2-methylpropionato)-trans-1,2-diaminocyclohexane platinum (II)]
IC50 SW-1116 (SW-1116 cells): 0.21 µg/mL
IC50 PC-3 (PC-3 cells): 1.57 µg/mL

Compound: CC(C)(CO)C(=O)[O-].CC(C)(CO)C(=O)[O-].N[C@@H]1CCCC[C@H]1N.[Pt+2] (relative stereo) [compound No. 10, cis-Bis(3-hydroxy-2,2-dimethylpropionato)-trans-1,2-diaminocyclohexane platinum (II)]
IC50 SW-1116 (SW-1116 cells): 0.065 µg/mL
IC50 PC-3 (PC-3 cells): 0.50 µg/mL

Compound: N.N.[Cl][Pt][Cl] [cis-Platin, cis-dichlorodiammine platinum (II), reference compound]
IC50 SW-1116 (SW-1116 cells): 0.36 µg/mL
IC50 PC-3 (PC-3 cells): 0.40 µg/mL
side effects [1]: strong side effects such as renal toxicity and vomitting toxicity
antitumor effect [2]: very excellent antitumor effect

Compound: CC(C)(CO)[C@@H](O)C(=O)[O-].CC(C)(CO)[C@@H](O)C(=O)[O-].NCC1(N)CCCCC1.[Pt+2] [compound No. 4, cis-Bis[(R)-2,4-dihydroxy-3,3-dimethylbutyrato]-1-amino-1-aminomethylcyclohexane platinum (II)]
IC50 SW-1116 (SW-1116 cells): 0.37 µg/mL
IC50 PC-3 (PC-3 cells): 0.73 µg/mL
Solubility in water: > 100 mg/mL

Compound: CC(C)(CO)C(O)C(=O)[O-].CC(C)(CO)C(O)C(=O)[O-].NC1CCCCC1N.[Pt+2] [compound No. 9, cis-Bis[(S)-2,4-dihydroxy-3,3-dimethylbutyrato]-trans-(R,R)-1,2-diaminocyclohexane platinum (II)]
IC50 SW-1116 (SW-1116 cells): 0.057 µg/mL
IC50 PC-3 (PC-3 cells): 0.45 µg/mL

Compound: CC(O)(CCO)CC(=O)[O-].CC(O)(CCO)CC(=O)[O-].N.N.[Pt+2] (stereo not drawn) [compound No. 12, cis-Bis(3,5-dihydroxy-3-methylvalerato)-diammine platinum (II)]
Solubility in water: > 100 mg/mL

Compound: cis-Bis[(R)-2,4-dihydroxy-3,3-dimethylbutyrato]-trans-(R,R)-1,2-diaminocyclohexane platinum (II) [compound No. 5]
IC50 SW-1116 (SW-1116 cells): 0.060 µg/mL
IC50 PC-3 (PC-3 cells): 0.60 µg/mL
Solubility in water: > 100 mg/mL

Compound: cis-Bis[(R)-2,4-dihydroxy-3,3-dimethylbutyrato]diammine platinum (II) [compound No. 1]
Solubility in water: > 100 mg/mL

The remaining lines, values ahead:

IC50 SW-1116 (SW-1116 cells): 0.085 µg/mL
IC50 PC-3 (PC-3 cells): 0.76 µg/mL
Compound: CC(O)(CCO)CC(=O)[O-].CC(O)(CCO)CC(=O)[O-].N[C@@H]1CCCC[C@H]1N.[Pt+2] (relative stereo) [compound No. 13, Cis-Bis(3,5-dihydroxy-3-methylvalerato)-trans-1,2-diaminocyclohexane platinum (II)]

IC50 SW-1116 (SW-1116 cells): 0.082 µg/mL
IC50 PC-3 (PC-3 cells): 0.60 µg/mL
Compound: CC(C)(CO)[C@@H](O)C(=O)NCCC(=O)[O-].CC(C)(CO)[C@@H](O)C(=O)NCCC(=O)[O-].N[C@@H]1CCCC[C@H]1N.[Pt+2] (stereo in doubt) [compound No. 17, cis-Bis[(R)-pantothenato]-trans-(R,R)-1,2-diaminocyclohexane platinum (II)]

IC50 SW-1116 (SW-1116 cells): 0.36 µg/mL
IC50 PC-3 (PC-3 cells): 0.35 µg/mL
Solubility in water: > 20 mg/mL
Compound: CC(C)(CO)C(=O)[O-].CC(C)(CO)C(=O)[O-].C[C@@H](CN)CCN.[Pt+2] (stereo in doubt) [compound No. 20, cis-Bis(3-hydroxy-2,2-dimethylpropionato)(R)-1,4-diamino-2-methylbutane platinum (II)]

IC50 SW-1116 (SW-1116 cells): 0.37 µg/mL
IC50 PC-3 (PC-3 cells): 0.53 µg/mL
Solubility in water: > 100 mg/mL
Compound: CC(C)(CO)C([O-])C(=O)[O-].C[C@@H](CN)CCN.[Pt+2] (stereo in doubt) [compound No. 21, cis-[2-(2-Hydroxy-1,1-dimethylethyl)-glycolato-O,O']-(R)-1,4-diamino-2-methylbutane platinum (II)]

IC50 SW-1116 (SW-1116 cells): 0.14 µg/mL
IC50 PC-3 (PC-3 cells): 0.80 µg/mL
Solubility in water: > 100 mg/mL
Compound: CC(O)(CCO)CC(=O)[O-].CC(O)(CCO)CC(=O)[O-].NCC1(N)CCCCC1.[Pt+2] (stereo not drawn) [compound No. 15, cis-Bis(3,5-dihydroxy-3-methylvalerato)-1-amino-1-aminomethylcyclohexane platinum (II)]

IC50 SW-1116 (SW-1116 cells): 0.25 µg/mL
IC50 PC-3 (PC-3 cells): 2.03 µg/mL
Compound: CC(C)(CO)C([O-])C(=O)[O-].NC1CCCCC1N.[Pt+2] (stereo not drawn) [compound No. 18, cis-[2-(2-Hydroxy-1,1-dimethylethyl)-glycolato-O,O']-trans-1,2-diaminocyclohexane platinum (II)]

IC50 SW-1116 (SW-1116 cells): 0.36 µg/mL
IC50 PC-3 (PC-3 cells): 0.40 µg/mL
Compound: CC(C)(CO)C(O)C(=O)[O-].CC(C)(CO)C(O)C(=O)[O-].CC(CN)CCN.[Pt+2] [compound No. 19, cis-Bis[(R)-2,4-dihydroxy-3,3-dimethylbutyrato]-(R)-1,4-diamino-2-methylbutane platinum (II)]
